The values below come from publication PMC9820377, “Molecular Characterization and Expression Patterns of Two Pheromone-Binding Proteins from the Diurnal Moth Phauda flammans (Walker) (Lepidoptera: Zygaenoidea: Phaudidae)” (International Journal of Molecular Sciences, 2022).

One assay addresses PflaPBP2 (Phauda flammans, UniProt A0A6M6R985). Description: Fluorescence competitive binding assay with 1-NPN probe, PflaPBP2. Particulars: recombinant protein 2 µM, 1-NPN 2 µM, 50 mM Tris-HCl buffer; for Ki: calculated from IC50 and K1-NPN, pH 7.4; for IC50: pH 7.4, room temperature. The method, then: (§1) An RF-5301PC fluorescence spectrophotometer (Shimadzu, Kyoto, Japan) was used in this experiment for fluorescence competitive binding analysis with a 1-cm quartz colorimetric cup at room temperature. N-Phenyl-1-naphthylamine (1-NPN) was used as the probe and applied for the suitability test. The 1-NPN was excited at 337 nm, in which the emission spectra were recorded between 350 and 660 nm. The purified PflaPBP1 and PflaPBP2 were diluted to a final concentration of 2 µM of the protein solution in Tris-HCl buffer and titrated with aliquots of 1 mM 1-NPN dissolved in methanol, which were 0, 2, 4, 8, 12, 16, 20 µM. The maximum fluorescence value (manipulate peak pick) of each excitation was recorded. The binding data were obtained from three independent measurements. The dissociation constants of PflaPBP1/PflaPBP2 for 1-NPN were calculated from Scatchard plots of the binding data by using Prism 5 software (GraphPad, La Jolla, CA, USA) with nonlinear regression for the one site-specific binding method.
The two sex pheromones Z-9-hexadecenal (Z9H, 96.3% chemical purity) and (Z, Z, Z)-9,12,15-octadecatrienal (Z9O, 93% chemical purity) were obtained from Shanghai T & W Pharmaceutical Co., Ltd. (Shanghai, China) and Pherobank BV (Wijk bij Duurstede, The Netherlands). The competitive binding of these two sex pheromone components was measured using 1-NPN (2 µM) as the fluorescent probe with a stoichiometry of 1:1 (protein: ligand). PflaPBP1 or PflaPBP2 was titrated to a final concentration of 2 μmol/L with 50 mM Tris-HCl buffer. […] All sets of fluorescence spectrophotometers were the same as above. The binding data were obtained from three independent measurements. […] The following formula was adopted to calculate the binding affinities (Ki): Ki=[IC50]/1+[1−NPN/K1−NPN] ) where [1-NPN] is the free concentration of 1-NPN, [IC50] is the ligand concentration replacing 50% of the fluorescence reporter, and K1-NPN is the dissociation constant of the PflaPBP/1-NPN complex. The data were fitted with nonlinear regression model using Prism software (version 5.0).

A further assay concerns the target PflaPBP1 (Phauda flammans, UniProt A0A6M6RBM3). Description: Fluorescence competitive binding assay with 1-NPN probe, PflaPBP1. The following applies: recombinant protein 2 µM, 1-NPN 2 µM, 50 mM Tris-HCl buffer; for Ki: calculated from IC50 and K1-NPN, pH 7.4; for IC50: pH 7.4, room temperature. The method, then:
as §1
The two sex pheromones Z-9-hexadecenal (Z9H, 96.3% chemical purity) and (Z, Z, Z)-9,12,15-octadecatrienal (Z9O, 93% chemical purity) were obtained from Shanghai T & W Pharmaceutical Co., Ltd. (Shanghai, China) and Pherobank BV (Wijk bij Duurstede, The Netherlands). The competitive binding of these two sex pheromone components was measured using 1-NPN (2 µM) as the fluorescent probe with a stoichiometry of 1:1 (protein: ligand). PflaPBP1 or PflaPBP2 was titrated to a final concentration of 2 μmol/L with 50 mM Tris-HCl buffer. The sex pheromone dissolved in methanol was gradually added to the mixed solution of protein and 1-NPN with the final concentration of each ligand added to the sample ranging from 0 μM to 20 μM. All sets of fluorescence spectrophotometers were the same as above. The binding data were obtained from three independent measurements. […] The following formula was adopted to calculate the binding affinities (Ki): Ki=[IC50]/1+[1−NPN/K1−NPN] ) where [1-NPN] is the free concentration of 1-NPN, [IC50] is the ligand concentration replacing 50% of the fluorescence reporter, and K1-NPN is the dissociation constant of the PflaPBP/1-NPN complex. The data were fitted with nonlinear regression model using Prism software (version 5.0).

PflaPBP1, sequence (A0A6M6RBM3 entry or part of it): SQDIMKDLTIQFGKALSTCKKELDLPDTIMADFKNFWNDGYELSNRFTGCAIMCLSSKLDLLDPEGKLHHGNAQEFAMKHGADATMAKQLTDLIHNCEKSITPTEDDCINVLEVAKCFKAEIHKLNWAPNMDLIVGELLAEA
PflaPBP2, sequence (A0A6M6R985 entry or part of it): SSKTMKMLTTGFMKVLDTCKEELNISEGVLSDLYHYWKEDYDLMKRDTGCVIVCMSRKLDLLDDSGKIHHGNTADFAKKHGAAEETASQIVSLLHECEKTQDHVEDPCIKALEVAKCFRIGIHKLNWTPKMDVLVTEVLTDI

What is called Ki is a measure of affinity in units of concentration, obtained from inhibition or displacement. One may read the IC50 as the point on the concentration scale where inhibition reaches its midpoint. For the compound `CCCCCC/C=C\CCCCCCCC=O` [Z-9-hexadecenal], on PflaPBP2, the Ki is 109 µM and the IC50 was 149 µM. In addition, at PflaPBP1, the Ki was 21.3 µM and the half-maximal inhibitory concentration (IC50) is 29.1 µM.

As to `CC/C=C\C/C=C\C/C=C\CCCCCCCC=O` [(Z, Z, Z)-9, 12, 15-octadecatrienal], on PflaPBP2, the Ki was 24.8 µM and the concentration for half-maximal inhibition (IC50) was determined as 34 µM. At PflaPBP1, the Ki was 38.5 µM and the IC50 was 52.7 µM.
